Values of other authors as cited in US8044020B2, “Pharmaceutical compositions and methods for insulin treatment” (CPEX Pharmaceuticals, Inc., priority 2003, dated 2011).

Details: beagles; previously determined (Hseih, 1993)

Compound: O=C1CCCCCCCCCCCCCCO1 [Cyclopentadecanolide]
- effect on migration of insulin through the nasal mucosa: facilitates the migration of insulin through the nasal mucosa
